One assay relates to U937 (FLT3 wild-type). In words: In vitro growth inhibition (GI50), U937. Type of assay: cell-based. To be noted: Homo sapiens, U-937; Cell lines of leukemia; read-out: GI 50 U937 FLT 3(WT). The source says: (§1) 1. Cell Lines and Cell Cultures
(§2) Tumor cell line is an effective cell model for studying the inhibition of tumor cell growth or proliferation in vitro. In the present invention, a representative tumor cell line was selected to determine the cell growth inhibition activity of the present compound. All cell lines used were from ATCC, DSMZ, and the Cell Bank of the Chinese Academy of Sciences. Cell culture conditions and methods were in accordance with the requirements of each cell line. Cells were subcultured in vitro for no more than 3 passages each time, and as required, single-clone purification and identification of cell lines could be carried out.
(§3) The cell culture media used were RPMI1640 (Gibco), MEM (Gibco), McCOY'S5A (Gibco), and IMDM (Gibco). The complete medium was prepared by supplement with 5˜20% fetal calf serum (Gibco), 1% double-antibiotics (10000 units/mL penicillin and 10000 units/mL), 2 mM glutamine or 1 mM sodium pyruvate, respectively.
(§4) The human acute […] monomonocyte leukemia cell line MV4-11 (FLT3 ITD+/+ mutant type, ATCC) was cultured in a complete medium comprising 1×IMDM and 10% FBS. Human acute myeloid leukemia cell line MOLM-13 (FLT3 ITD+/− mutant type, DSMZ), human acute lymphoblastic leukemia cell line RS4; 11 (FLT3 wild type, ATCC), human chronic granulocytic leukemia cell line K562 (FLT3 negative expression, positive expression of BCR-ABL fusion protein, ATCC), human promyelocytic leukemia cell line HL-60 (FLT3 wild type, ATCC), human B lymphoblastic leukemia cell line RAMOS (positive expression of Brutons tyrosine protein kinase, ATCC), human acute myeloid leukemia cell line Kasumi-1 (c-Kit N822K mutant type, ATCC), human acute monocytic leukemia cell line U937 (FLT3 wild-type, ATCC), human acute myeloid leukemia cell line OCI-AML3 (NPMc+ mutant type, ATCC), human acute myeloid leukemia cell line KG-1 (expressing FGFR1OP2-FGFR1 fusion protein, ATCC) were cultured in a complete medium comprising 1×RPMI1640 and 10% FBS, respectively.
(§5) The suspension cells were collected by centrifugation. The supernatant was discarded and the cell pellet was resuspended and counted. Different cell concentrations (5˜10×10^4 cells/mL) were prepared according to the growth cycle of each cell line and then seeded on a 96-well plate (Corning), 100 μL/well. The cells were incubated overnight at 37° C., 5% CO2. The compounds were added to the cells on the second day with 2 wells in parallel. The final concentration of organic solvent shall not exceed 1%. The cells were continually incubated for 3 to 5 days, and then subjected to MTT assay.
(§6) The compound was stored in a concentration of 10 mM at −20° C. and diluted to 2- or 10-fold series prior to use.
(§7) Dojindo CCK8 reagent kit was used as MTT assay. […] FC meter was used as microplate reader.
(§8) For adherent cells, culture medium was removed and immediately replaced with the fresh prepared medium which contains 10% CCK8 reagent (100 μL/well). For the suspension cells, CCK8 was directly added to 10% of the final concentration. The cells were continually incubated for 1˜4 h. […] The experiment was independently repeated 1˜3 times, and subject to biological statistical analysis. 4. Experimental Results
(§9) The initial concentration of the compound was 5,000 nM, then it was serially diluted by 2-fold or 10-fold to 0.01 nM. The GI50 value of each test compound was calculated according to the GI50 assay and calculation method. The experiments were repeated 1 to 3 times, and data were subjected to biological statistical analysis.

The subject of the next assay is RS4; 11 (FLT3 wild type). Description: In vitro growth inhibition (GI50), RS4; 11. It is filed as cell-based, human. The note with it: Homo sapiens, RS4-11; Cell lines of leukemia; read-out: GI 50 RS4: 11 FLT3 (WT).
From the text: as §1, §2, §3, §4, §5, §6, §7, §8, §9

In assay [1] the test system is Kasumi-1 (c-Kit N822K mutant type). Description: In vitro growth inhibition (GI50), Kasumi-1. To be noted: Homo sapiens, Cell lines of leukemia, read-out: GI 50 Kasumi-1 Kit (N822K). It is filed as cell-based.
From the text: as §1, §2, §3, §4
as §5, with “Adherent cells were digested with 0.25% pancreatin-EDTA (Gibco). The suspension” for “The suspension”
(§10) The compound of the present invention and the control compound were dissolved in DMSO (Sigma) respectively, with the purity of more than 98%. The compound was stored in a concentration of 10 mM at −20° C. and diluted to 2- or 10-fold series prior to use.
(§11) Dojindo CCK8 reagent kit was used as MTT assay. THERMO […] FC meter was used as microplate reader.
(§12) For adherent cells, culture medium was removed and immediately replaced with the fresh prepared medium which contains 10% CCK8 reagent (100 μL/well). For the suspension cells, CCK8 was directly added to 10% of the final concentration. The cells were continually incubated for 1˜4 h. When a dark yellow color could be observed in the solvent control wells, the absorbance value at OD450 nm was measured and the cell growth rate was calculated according to the following formula: Cell Growth Rate (%)=100*(T−T0)/(C−T0) T=optical density of drug treatment cell well—optical density of blank control well; T0=optical density of cell well before drug treatment—optical density of blank control well; C=optical density of cell well of solvent control group—optical density of blank control well. The concentration value of 50% inhibition of cell growth (GI50) was calculated according to the drug concentration and cell growth rate curve. […]

Assay [2] deals with MOLM-13 (FLT3 ITD+/− mutant type). Description: In vitro growth inhibition (GI50), MOLM-13. It is filed as cell-based, human. To be noted: Homo sapiens, MOLM-13; Cell lines of leukemia; read-out: GI 50 MOLM-13 FLT3 (ITD+/−).
From the text: as §1, §2, §3, §4, §5, §6, §7, §8, §9

Assay [3] relates to RAMOS (positive expression of Brutons tyrosine protein kinase). In words: In vitro growth inhibition (GI50), RAMOS. It is filed as cell-based. To be noted: Homo sapiens, Cell lines of leukemia, read-out: GI 50 Ramos BTK.
From the text: as §1, §2, §3, §4, §5, §6, §7, §8, §9

In assay [4] the test system is MV4-11 (FLT3 ITD+/+ mutant type). In words: In vitro growth inhibition (GI50), MV4-11. The note with it: Homo sapiens, MV4-11; Cell lines of leukemia; read-out: GI 50 MV4-11 FLT3 (ITD +/+). It is filed as cell-based, human.
From the text: as §1, §2, §3, §4, §5, §6, §7, §8, §9

For assay [5], the system named is K562 (FLT3 negative expression, positive expression of BCR-ABL fusion protein). Description: In vitro growth inhibition (GI50), K562. To be noted: Homo sapiens, Cell lines of leukemia, read-out: GI 50 K562 BCR-ABL. Type of assay: cell-based.
From the text: as §1, §2, §3, §4, §5, §6, §7, §8, §9

Assay [6] concerns OCI-AML3 (NPMc+ mutant type). Description: In vitro growth inhibition (GI50), OCI-AML3. Type of assay: cell-based. To be noted: Homo sapiens, OCI-AML-3; Cell lines of leukemia; read-out: GI 50 OCI- AML3 NPMc+.
From the text: as §1, §2, §3, §4, §5, §6, §7, §8, §9

Assay [7] has as its system KG-1 (expressing FGFR1OP2-FGFR1 fusion protein). Description: In vitro growth inhibition (GI50), KG-1. Type of assay: cell-based. To be noted: Homo sapiens; Cell lines of leukemia; read-out: GI 50 KG-1 FGFR1OP 2-FGFR1.
From the text: as §1, §2, §3, §4, §5, §6, §7, §8, §9

The test system of another assay is HL-60 (FLT3 wild type). In words: In vitro growth inhibition (GI50), HL-60. It is filed as cell-based. To be noted: Homo sapiens, Cell lines of leukemia, read-out: GI 50 HL60 FLT3 (WT).
From the text: as §1, §2, §3, §4
as §5, with “Adherent cells were digested with 0.25% pancreatin-EDTA (Gibco). The suspension” for “The suspension”
as §10, §11, §12

The structures appear in SMILES notation. Bounds are passed on as bounds.

For `CC(C)(C)c1cc(NC(=O)Nc2ccc(-n3c(Cl)nc4ccccc43)cc2)no1` [Compound 36, 1-(5-tert-butyl-isoxazol-3-yl)-3-[4-(2-chlorobenzimidazol-1-yl)-phenyl]-urea], the GI50 in the assay with U937 (FLT3 wild-type) was greater than 1000 nM; in the assay with RS4; 11 (FLT3 wild type) it was greater than 1000 nM; in [1] it was greater than 1000 nM; in assay [2], 100 to 1000 nM; in assay [3] it was greater than 1000 nM; in assay [4], 100 to 1000 nM. The GI50 (in [5]; in assay [6]; in assay [7]; in the assay with HL-60 (FLT3 wild type)) was greater than 1000 nM throughout.

For `CC(C)(C)c1cc(NC(=O)Nc2ccc(-n3cnc4cc(Br)cnc43)cc2)no1` [Compound 51, 1-[4-(6-bromo-imidazo[4,5-b]pyridin-3-yl)-phenyl]-3-(5-tert-butyl-isoxazol-3-yl)-urea], the GI50 with U937 (FLT3 wild-type) was greater than 1000 nM; in the assay with RS4; 11 (FLT3 wild type), greater than 1000 nM; in assay [1] it was greater than 1000 nM; in [2] it was 1 to 10 nM; in assay [3] it was greater than 1000 nM; in [4], 1 to 10 nM. Further, the GI50 (in assay [5]; in assay [6]; in [7]; in the assay on HL-60 (FLT3 wild type)) was greater than 1000 nM in each case.

For the compound `Cc1ccc2ncn(-c3ccc(NC(=O)Nc4cc(C(C)(C)C)on4)cc3)c2n1` [Compound 54, 1-(5-tert-butyl-isoxazol-3-yl)-3-[4-(5-methylimidazo[4,5-b]pyridine-3-yl)-phenyl]-urea], the GI50 in the assay with U937 (FLT3 wild-type) is greater than 1000 nM; with RS4; 11 (FLT3 wild type) it was greater than 1000 nM; in [1] it was greater than 1000 nM; in assay [2], 1 to 10 nM; in [3] it was greater than 1000 nM; in assay [4], 1 to 10 nM. In addition, the GI50 (in assay [5]; in assay [6]; in [7]; with HL-60 (FLT3 wild type)) was greater than 1000 nM each time.

On to `Cc1cc(NC(=O)Nc2ccc(-n3cnc4ccccc43)cc2)no1` [Compound 2, 1-(4-benzimidazol-1-yl-phenyl)-3-(5-methyl-isoxazol-3-yl)-urea], for which the GI50 (in the assay with U937 (FLT3 wild-type); in the assay with RS4; 11 (FLT3 wild type); in assay [1]; in [2]; in assay [3]; in assay [4]) was greater than 1000 nM in each case. The GI50 (in assay [5]; in [6]; in assay [7]; in the assay with HL-60 (FLT3 wild type)) was greater than 1000 nM each time.

Take `CC(C)(C)c1cc(NC(=O)Nc2ccc(-n3cnc4cccc(OCCN5CCOCC5)c43)cc2)no1` [Compound 30, 1-(5-tert-butyl-isoxazol-3-yl)-3-{4-[7-(2-morpholin-4-yl-ethoxyl)-benzimidazol-1-yl]-phenyl}-urea]: the GI50 (in the assay with U937 (FLT3 wild-type); with RS4; 11 (FLT3 wild type); in assay [1]; in assay [2]; in assay [3]; in [4]) was greater than 1000 nM each time. Also, the GI50 in assay [5] is greater than 1000 nM; in [6], greater than 1000 nM; in assay [7] it was greater than 1000 nM; in the assay with HL-60 (FLT3 wild type), 100 to 1000 nM.

On to `COCCOc1ccc2ncn(-c3ccc(NC(=O)Nc4cc(C(C)(C)C)on4)cc3)c2c1` [Compound 26, 1-(5-tert-butyl-isoxazol-3-yl)-3-{4-[6-(2-methoxyl-ethoxyl)-benzimidazol-1-yl]-phenyl]urea], for which the GI50 in the assay with U937 (FLT3 wild-type) is greater than 1000 nM; with RS4; 11 (FLT3 wild type) it was 100 to 1000 nM; in [1] it was greater than 1000 nM; in assay [2], 0.1 to 1 nM; in [3] it was greater than 1000 nM; in assay [4] it was 0.1 to 1 nM. Further, the GI50 in [5] is 100 to 1000 nM; in assay [6], greater than 1000 nM; in assay [7], greater than 1000 nM; with HL-60 (FLT3 wild type) it was greater than 1000 nM.

On to `CCCCCCOc1ccc2c(c1)ncn2-c1ccc(NC(=O)Nc2cc(C(C)(C)C)on2)cc1` [Compound 7, 1-(5-tert-butyl-isoxazol-3-yl)-3-[4-(5-hexyloxyl-benzimidazol-1-yl)-phenyl]-urea], for which the GI50 with U937 (FLT3 wild-type) was greater than 1000 nM; in the assay on RS4; 11 (FLT3 wild type), greater than 1000 nM; in assay [1], greater than 1000 nM; in assay [2], 0.1 to 1 nM; in assay [3], greater than 1000 nM; in assay [4], 0.1 to 1 nM. In addition, the GI50 (in assay [5]; in [6]; in [7]; in the assay with HL-60 (FLT3 wild type)) was greater than 1000 nM throughout.

For the compound `CC(C)(C)c1cc(NC(=O)Nc2ccc(-n3cnc4cc(OCC#N)ccc43)cc2)[nH]n1` [Compound 83, 1-(5-tert-butyl-2H-pyrazol-3-yl)-3-[4-(5-cyanomethoxy-benzimidazol-1-yl)-phenyl]-urea], the GI50 in the assay with U937 (FLT3 wild-type) is greater than 1000 nM; with RS4; 11 (FLT3 wild type), greater than 1000 nM; in [1] it was greater than 1000 nM; in assay [2], 0.1 to 1 nM; in [3], greater than 1000 nM; in [4], 0.1 to 1 nM. Moreover, the GI50 (in assay [5]; in [6]; in assay [7]; with HL-60 (FLT3 wild type)) was greater than 1000 nM throughout.

The record behind these values is patent US10647680B2, “Urea compound, preparation method therefor and medical use thereof” (Ancureall Pharmaceutical (Shanghai) Co., Ltd., priority 2016, dated 2020).
